From patent publication US6951855B2, “Benzoxazinone derivatives for use in the treatment of angiogenesis” (AstraZeneca AB, priority 2001, dated 2005)

First: COc1ccc(Oc2ccc3c(c2)OCC(=O)N3)cc1 [Example 1, 7-(4-Methoxyphenoxy)-2H-1,4-benzoxazin-3(4H)-one]
Second: O=C1COc2cc(Oc3ccc(O)cc3)ccc2N1 [Example 2, 7-(4-Hydroxyphenoxy)-2H-1,4-benzoxazin-3(4H)-one]
The melting point of the first is lower: 163 to 164 °C for the first, 250 to 251 °C for the second.

First: Nc1ccc(Sc2ccc3c(c2)OCC(=O)N3)cc1 [Example 3, 7-[(4-Aminophenyl)sulfanyl]-2H-1,4-benzoxazin-3(4H)-one]
Second: O=C1COc2cc(Sc3ccc(O)cc3)ccc2N1 [Example 6, 7-[(4-Hydroxyphenyl)sulfanyl]-2H-1,4-benzoxazin-3(4H)-one]
The melting point of the first is higher: 232 to 234 °C for the first, 224 to 225 °C for the second.

Compared with `Nc1ccccc1Sc1ccc2c(c1)OCC(=O)N2` [Example 4, 7-[(2-Aminophenyl)sulfanyl]-2H-1,4-benzoxazin-3(4H)-one], `Nc1cccc(Sc2ccc3c(c2)OCC(=O)N3)c1` [Example 5, 7-[(3-Aminophenyl)sulfanyl]-2H-1,4-benzoxazine-3(4H)-one] is lower in melting point: 204 to 205 °C for the first, 181 to 182 °C for the second.

First: COc1ccc(Sc2ccc3c(c2)OCC(=O)N3)cc1OC [Example 7, 7-[(3,4-Dimethoxyphenyl)sulfanyl]-2H-1,4-benzoxazin-3(4H)-one]
Second: O=C1COc2cc(Sc3ccc(O)c(O)c3)ccc2N1 [Example 8, 7-[(3,4-Dihydroxyphenyl)sulfanyl]-2H-1,4-benzoxazin-3(4H)-one]
The melting point of the first is lower: 170 to 171 °C for the first, 236 to 238 °C for the second.

First: O=C1COc2cc(SCc3ccccc3)ccc2N1 [Example 9, 7-Benzylsulfanyl-2H-1,4-benzoxazin-3(4H)-one]
Second: O=C1COc2cc(SCc3ccc(O)cc3)ccc2N1 [Example 13, 7-(4-Hydroxybenzylsulfanyl)-2H-1,4-benzoxazin-3(4H)-one]
The melting point of the first is lower: 154 to 155 °C for the first, 207 to 209 °C for the second.

First: COc1ccc(Nc2ccc3c(c2)OCC(=O)N3)cc1 [Example 14, 7-(4-Methoxyanilino)-2H-1,4-benzoxazin-3(4H)-one]
Second: O=C1COc2cc(Nc3ccc(O)cc3)ccc2N1 [Example 15, 7-(4-Hydroxyanilino)-2H-1,4-benzoxazin-3(4H)-one]
The melting point of the first is lower: 174 to 175 °C for the first, 270 to 275 °C for the second.

First: Nc1cccc(Oc2ccc3c(c2)OCC(=O)N3)c1 [Example 17, 7-(3-Aminophenoxy)-2H-1,4-benzoxazin-3(4H)-one]
Second: Nc1ccccc1Oc1ccc2c(c1)OCC(=O)N2 [Example 18, 7-(2-Aminophenoxy)-2H-1,4-benzoxazin-3(4H)-one]
The melting point of the first is higher: 209 to 210 °C for the first, 149 to 150 °C for the second.

In the case of `CC(=O)Nc1ccc(Oc2ccc3c(c2)OCC(=O)N3)cc1` [Example 19, 7-(4-Acetylaminophenoxy)-2H-1,4-benzoxazin-3(4H)-one], the melting point is reported as 230 to 232 °C.
